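96-well plates; 48 h exposure; 5 concentrations. Endpoints by linear interpolation between flanking doses. Not reached: highest tested concentration assigned. TGI marks complete inhibition of growth.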 A value given as a limit tells only on which side of the number the result lay.

One assay concerns UO-31 renal. The assay can be described thus: growth of human tumour cells (NCI), 48 h.
`CCC[C@@H](O)C[C@@H]1CCC[C@H](C[C@@H](O)CC)N1C` showed a TGI above 100 µM.
Consider `CC[C@@]1(C[C@H]2C[C@@]3(C(=O)OC)c4[nH]c5ccccc5c4CCN3C2=O)COC2(CCCCC2)O1`, for which the TGI is above 100 µM.
Regarding `O=C1C(=Cc2ccc(O)cc2)N=C(c2ccccc2)N1n1c(-c2ccccc2)nc2ccccc2c1=O`, the TGI is above 100 µM.
`O=C1OCC(O)=C1C(c1ccc(Cl)cc1)c1cc2c(cc1O)OCO2` (stereo not given) displayed a TGI above 100 µM.

In a further assay the test system is OVCAR-5 ovarian. The assay can be described thus: growth of human tumour cells (NCI), 48 h.
In turn, `CCC[C@@H](O)C[C@@H]1CCC[C@H](C[C@@H](O)CC)N1C` came in with a TGI above 100 µM.
The compound `CC[C@@]1(C[C@H]2C[C@@]3(C(=O)OC)c4[nH]c5ccccc5c4CCN3C2=O)COC2(CCCCC2)O1` gave a TGI above 100 µM.
`O=C1OCC(O)=C1C(c1ccc(Cl)cc1)c1cc2c(cc1O)OCO2` (stereo not given) showed a TGI above 100 µM.

A further assay has as its system OVCAR-4 ovarian. As to the kind of experiment: growth of human tumour cells (NCI), 48 h.
Consider `CCC[C@@H](O)C[C@@H]1CCC[C@H](C[C@@H](O)CC)N1C`, for which the TGI was above 100 µM.
`CC[C@@]1(C[C@H]2C[C@@]3(C(=O)OC)c4[nH]c5ccccc5c4CCN3C2=O)COC2(CCCCC2)O1` displayed a TGI above 100 µM.
`O=C1OCC(O)=C1C(c1ccc(Cl)cc1)c1cc2c(cc1O)OCO2` (stereo not given) showed a TGI above 100 µM.

A further assay relates to HT29 colon. As to the kind of experiment: growth of human tumour cells (NCI), 48 h.
As to `CCC[C@@H](O)C[C@@H]1CCC[C@H](C[C@@H](O)CC)N1C`, the TGI was above 100 µM.
With `CC[C@@]1(C[C@H]2C[C@@]3(C(=O)OC)c4[nH]c5ccccc5c4CCN3C2=O)COC2(CCCCC2)O1`, the TGI is above 100 µM.
The compound `O=C1C(=Cc2ccc(O)cc2)N=C(c2ccccc2)N1n1c(-c2ccccc2)nc2ccccc2c1=O` returned a TGI above 100 µM.
With `O=C1OCC(O)=C1C(c1ccc(Cl)cc1)c1cc2c(cc1O)OCO2` (stereo not given), the TGI is above 100 µM.

Another assay relates to OVCAR-8 ovarian. The assay can be described thus: growth of human tumour cells (NCI), 48 h.
Consider `CCC[C@@H](O)C[C@@H]1CCC[C@H](C[C@@H](O)CC)N1C`, for which the TGI was above 100 µM.
As for `CC[C@@]1(C[C@H]2C[C@@]3(C(=O)OC)c4[nH]c5ccccc5c4CCN3C2=O)COC2(CCCCC2)O1`, the TGI is above 100 µM.
The same measure, in the same setting: the same measure for `O=C1C(=Cc2ccc(O)cc2)N=C(c2ccccc2)N1n1c(-c2ccccc2)nc2ccccc2c1=O`: above 100 µM.

A further assay deals with MALME-3M melanoma. As to the kind of experiment: growth of human tumour cells (NCI), 48 h.
In turn, `CC[C@@]1(C[C@H]2C[C@@]3(C(=O)OC)c4[nH]c5ccccc5c4CCN3C2=O)COC2(CCCCC2)O1` came in with a TGI above 100 µM.
Turning to `O=C1C(=Cc2ccc(O)cc2)N=C(c2ccccc2)N1n1c(-c2ccccc2)nc2ccccc2c1=O`, the TGI was above 100 µM.
For the compound `O=C1OCC(O)=C1C(c1ccc(Cl)cc1)c1cc2c(cc1O)OCO2` (stereo not given), the TGI is above 100 µM.

For the next assay, the system named is OVCAR-3 ovarian. As to the kind of experiment: growth of human tumour cells (NCI), 48 h.
In turn, `CCC[C@@H](O)C[C@@H]1CCC[C@H](C[C@@H](O)CC)N1C` displayed a TGI above 100 µM.
On to `CC[C@@]1(C[C@H]2C[C@@]3(C(=O)OC)c4[nH]c5ccccc5c4CCN3C2=O)COC2(CCCCC2)O1`, for which the TGI is above 100 µM.
Turning to `O=C1OCC(O)=C1C(c1ccc(Cl)cc1)c1cc2c(cc1O)OCO2` (stereo not given), the TGI was above 100 µM.

In a further assay the test system is T-47D breast. As to the kind of experiment: growth of human tumour cells (NCI), 48 h.
For `CCC[C@@H](O)C[C@@H]1CCC[C@H](C[C@@H](O)CC)N1C`, the TGI is above 100 µM.
In turn, `CC[C@@]1(C[C@H]2C[C@@]3(C(=O)OC)c4[nH]c5ccccc5c4CCN3C2=O)COC2(CCCCC2)O1` yielded a TGI above 100 µM.
The compound `O=C1C(=Cc2ccc(O)cc2)N=C(c2ccccc2)N1n1c(-c2ccccc2)nc2ccccc2c1=O` had a TGI above 100 µM.

The test system of a further assay is SF-539 CNS. As to the kind of experiment: growth of human tumour cells (NCI), 48 h.
Consider `CCC[C@@H](O)C[C@@H]1CCC[C@H](C[C@@H](O)CC)N1C`, for which the TGI is above 100 µM.
On to `CC[C@@]1(C[C@H]2C[C@@]3(C(=O)OC)c4[nH]c5ccccc5c4CCN3C2=O)COC2(CCCCC2)O1`, for which the TGI was above 100 µM.
In the case of `O=C1C(=Cc2ccc(O)cc2)N=C(c2ccccc2)N1n1c(-c2ccccc2)nc2ccccc2c1=O`, the TGI is above 100 µM.
As for `O=C1OCC(O)=C1C(c1ccc(Cl)cc1)c1cc2c(cc1O)OCO2` (stereo not given), the TGI is above 100 µM.

A further assay concerns SF-295 CNS. The assay can be described thus: growth of human tumour cells (NCI), 48 h.
The compound `CCC[C@@H](O)C[C@@H]1CCC[C@H](C[C@@H](O)CC)N1C` yielded a TGI above 100 µM.
For `CC[C@@]1(C[C@H]2C[C@@]3(C(=O)OC)c4[nH]c5ccccc5c4CCN3C2=O)COC2(CCCCC2)O1`, the TGI was above 100 µM.
As for `O=C1C(=Cc2ccc(O)cc2)N=C(c2ccccc2)N1n1c(-c2ccccc2)nc2ccccc2c1=O`, the TGI is above 100 µM.

For another assay, the system named is HOP-62 NSCLC. As to the kind of experiment: growth of human tumour cells (NCI), 48 h.
Compound `CCC[C@@H](O)C[C@@H]1CCC[C@H](C[C@@H](O)CC)N1C` returned a TGI above 100 µM.
`CC[C@@]1(C[C@H]2C[C@@]3(C(=O)OC)c4[nH]c5ccccc5c4CCN3C2=O)COC2(CCCCC2)O1` registered a TGI above 100 µM.
The compound `O=C1C(=Cc2ccc(O)cc2)N=C(c2ccccc2)N1n1c(-c2ccccc2)nc2ccccc2c1=O` displayed a TGI above 100 µM.
With `O=C1OCC(O)=C1C(c1ccc(Cl)cc1)c1cc2c(cc1O)OCO2` (stereo not given), the TGI was above 100 µM.

A further assay concerns SN12C renal. As to the kind of experiment: growth of human tumour cells (NCI), 48 h.
Take `CCC[C@@H](O)C[C@@H]1CCC[C@H](C[C@@H](O)CC)N1C`: the TGI was above 100 µM.
Take `CC[C@@]1(C[C@H]2C[C@@]3(C(=O)OC)c4[nH]c5ccccc5c4CCN3C2=O)COC2(CCCCC2)O1`: the TGI was above 100 µM.
Turning to `O=C1OCC(O)=C1C(c1ccc(Cl)cc1)c1cc2c(cc1O)OCO2` (stereo not given), the TGI was above 100 µM.

For the next assay, the system named is M14 melanoma. The assay can be described thus: growth of human tumour cells (NCI), 48 h.
On to `CCC[C@@H](O)C[C@@H]1CCC[C@H](C[C@@H](O)CC)N1C`, for which the TGI is above 100 µM.
Same read-out and setting: to `CC[C@@]1(C[C@H]2C[C@@]3(C(=O)OC)c4[nH]c5ccccc5c4CCN3C2=O)COC2(CCCCC2)O1` belongs above 100 µM.
Compound `O=C1C(=Cc2ccc(O)cc2)N=C(c2ccccc2)N1n1c(-c2ccccc2)nc2ccccc2c1=O` registered a TGI above 100 µM.
Turning to `O=C1OCC(O)=C1C(c1ccc(Cl)cc1)c1cc2c(cc1O)OCO2` (stereo not given), the TGI was above 100 µM.

The next assay concerns HCT-116 colon. As to the kind of experiment: growth of human tumour cells (NCI), 48 h.
`CCC[C@@H](O)C[C@@H]1CCC[C@H](C[C@@H](O)CC)N1C` yielded a TGI above 100 µM.
Take `CC[C@@]1(C[C@H]2C[C@@]3(C(=O)OC)c4[nH]c5ccccc5c4CCN3C2=O)COC2(CCCCC2)O1`: the TGI is above 100 µM.
The compound `O=C1C(=Cc2ccc(O)cc2)N=C(c2ccccc2)N1n1c(-c2ccccc2)nc2ccccc2c1=O` displayed a TGI above 100 µM.
Same read-out and setting: to `O=C1OCC(O)=C1C(c1ccc(Cl)cc1)c1cc2c(cc1O)OCO2` (stereo not given) belongs above 100 µM.

In another assay the test system is NCI/ADR-RES ovarian. As to the kind of experiment: growth of human tumour cells (NCI), 48 h.
Regarding `CCC[C@@H](O)C[C@@H]1CCC[C@H](C[C@@H](O)CC)N1C`, the TGI was above 100 µM.
As for `CC[C@@]1(C[C@H]2C[C@@]3(C(=O)OC)c4[nH]c5ccccc5c4CCN3C2=O)COC2(CCCCC2)O1`, the TGI is above 100 µM.

These data come from PubChem BioAssay (NCI).
